pKi: −log10 of the molar value.
Tests used:
human 5HT2a receptors = target: T1, human 5HT2a receptors (Homo sapiens, UniProt P28223); assay: Competition radioligand binding, 5-HT2A; settings: [3H]Ketanserin; membranes of CHO K1 cells; read-out: Ki 5-HT2A
T1 construct: expressed in transfected cells; host or cells: CHO K1 cells
Protocol: (§1) Cells and Membrane Preparation: HEK 293 cells stably expressing human 5-HT7B (h5-HT7b) receptors were grown in Dulbecco's Modified Eagle's Medium (DMEM; Gibco) without sodium pyruvate and containing 4.5 g/L glucose, L-glutamine/penicillin-streptomycin (Gemini), 10% fetal bovine serum and 250 mg/l of the antibiotic, G418 (Geneticin) as previously described (Jasper, J. R., Kosaka, A., To, Z. P., Chang, D. J. and Eglen, R. M. (1997) Cloning, expression and pharmacology of a truncated splice variant of the human 5-ht7 receptor (h5-ht7b). Br. J. Pharmacol. 122(1):126-132.). Cell pellets were homogenized in approximately 50 mL of homogenization buffer (buffer A) containing: 50 mM Tris (pH 7.4), 2 mM EGTA, 0.32 M sucrose, 10 μM PMSF, 1 μg/mL leupeptin, 5 μg/mL Pepstatin A, and 5 μg/mL aprotinin using an UltraTurax homogenizer (Tekmar Company, Cincinnati, Ohio) at 80% maximum setting three times for 10 sec. Cell pellets were centrifuged at 4° C. at 1,500×g for 10 min in a Beckman GS-6R centrifuge. Pellets were resuspended in buffer A, homogenized and centrifuged as described above. Pooled supernatants were transferred to centrifuge bottles and centrifuged at 4° C. at 20,000×g for 30 min in a Beckman J2-HS centrifuge. Cell pellets were resuspended in buffer A and were centrifuged at 4° C. at 20,000×g for 30 min. Cell pellets were resuspended in buffer A and stored at −70° C. in aliquots of 2.5 mg/mL total membrane protein. Total membrane protein was assessed utilizing a BCA kit (Pierce; Rockford, Ill.). Membranes containing human 5-HT1a or 5HT2a receptors expressed in CHO K1 cells were prepared as described above.
(§2) Radioligand Binding Assays: For 5-HT7 saturation binding experiments, HEK-293 cell membranes expressing h5-HT7 receptors (5-10 μg membrane protein/well) were incubated in duplicate with [^3H]5-CT (approximately 0.2 nM) in binding assay buffer containing: 50 mM HEPES (pH 7.4), 0.5 mM EDTA, 10 mM MgCl2, 10 μM pargyline to inhibit monoamine oxidase activity, and 0.1% sodium ascorbate, in a final volume of 200 μL in 96-well polypropylene plates for 2 hours at 37° C. Nonspecific binding was determined by incubating membranes with 1 μM 5-HT. All radioligand binding assays were stopped by rapid filtration onto 96-well GF/C filter plates (Packard) soaked in 0.1% polyethylenimine. Filters were washed three times with ice-cold phosphate-buffered saline (PBS) wash buffer containing 50 mM NaPO4 (pH 7.4), 0.9% NaCl, 2 mM MgCl2 and 0.02% NaN3. The filters were then counted using liquid scintillation in a Packard Topcount scintillation counter.
(§3) Data Analysis: Radioligand binding experiments were analyzed with Prism™ (Graphpad, San Diego, Calif.), a computer graphics and statistics program. IC50 values and Hill slopes for compounds were generated by nonlinear regression using Prism™. Values for Ki calculated from IC50 values by the Cheng and Prussoff equation (Cheng, Y. and Prusoff, W. H., (1973), “Relationship between the inhibition constant (Ki) and the concentration of inhibitor which causes 50 per cent inhibition (I50) of an enzymatic reaction.” Biochemical Pharmacol. 22:3099-3108).

human 5-HT1a receptors = target: T2, human 5-HT1a receptors (Homo sapiens, UniProt P08908); assay: Competition radioligand binding, h5-HT1a; settings: [3H]5-CT; membranes of CHO K1 cells; read-out: Ki 5-HT1A
T2 construct: expressed in transfected cells; host or cells: CHO K1 cells
T2 sequence (P08908 1-422): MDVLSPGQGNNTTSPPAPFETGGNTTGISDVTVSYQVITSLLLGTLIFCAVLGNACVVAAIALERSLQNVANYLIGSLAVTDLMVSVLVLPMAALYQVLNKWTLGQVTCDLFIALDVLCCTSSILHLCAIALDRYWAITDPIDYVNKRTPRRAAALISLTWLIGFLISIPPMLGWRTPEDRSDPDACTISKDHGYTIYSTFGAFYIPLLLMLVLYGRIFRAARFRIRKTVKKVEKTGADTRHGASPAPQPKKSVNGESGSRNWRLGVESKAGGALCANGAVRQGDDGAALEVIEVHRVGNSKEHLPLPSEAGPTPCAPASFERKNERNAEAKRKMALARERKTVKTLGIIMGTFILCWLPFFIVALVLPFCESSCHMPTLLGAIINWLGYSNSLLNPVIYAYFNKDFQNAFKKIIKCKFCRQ
Protocol: as §1, §2, §3

[1] = target: T3, human 5-HT7B (h5-HT7b) receptors (Homo sapiens, UniProt P34969); assay: Competition radioligand binding, h5-HT7b; settings: [3H]5-CT; membranes of HEK 293 cells; read-out: Ki 5-HT7
T3 construct: expressed in transfected cells
T3 sequence (P34969 1-432 limits assumed): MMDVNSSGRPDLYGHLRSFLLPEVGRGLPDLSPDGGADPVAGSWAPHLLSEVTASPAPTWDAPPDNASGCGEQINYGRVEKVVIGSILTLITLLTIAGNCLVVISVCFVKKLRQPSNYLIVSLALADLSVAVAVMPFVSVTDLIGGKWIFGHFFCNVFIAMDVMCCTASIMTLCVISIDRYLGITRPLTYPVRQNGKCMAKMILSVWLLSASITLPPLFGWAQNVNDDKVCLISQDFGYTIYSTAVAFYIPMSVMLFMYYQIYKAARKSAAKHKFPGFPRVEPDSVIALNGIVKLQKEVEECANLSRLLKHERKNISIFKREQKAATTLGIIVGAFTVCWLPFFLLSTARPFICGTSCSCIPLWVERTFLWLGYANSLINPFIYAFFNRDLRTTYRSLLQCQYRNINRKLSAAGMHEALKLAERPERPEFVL
Description: The compounds of the invention interact with 5-HT receptors and show selectivity for 5-HT receptors. The 5-HT receptor binding properties of the compounds are identified by competitive radioligand binding assays wherein membranes prepared from transfected cells expressing the 5-HT receptor subtype of interest. “Binding constants” refers herein to Ki values measured by inhibition of the binding of radiolabelled ligands that are selective for the 5-HT receptor type being studied. For 5-HT7 receptors, Ki values are determined by measuring the inhibition of 5-carboxamidotryptamine (5-CT) binding, wherein 5-HT7 receptors were incubated with the radiolabelled high affinity ligand, 5-carboxamidotryptamine ([^3H]5-CT), in the presence and absence of the compounds of the invention, at varying concentrations. The compounds of the invention have high binding affinity for serotonin receptors as measured by dissociation constant Ki. […] “Selectivity” for receptor type, in the context of this invention, refers to the ratio of binding constants for the two receptor types being compared. […] The compounds of the present invention preferably show selectivity for 5-HT7 receptors over other serotonin receptor subtypes of greater than about 100. The compounds of the present invention also preferably show selectivity for 5-HT7 receptors over other receptor types, such as dopamine D2, of greater than about 100.
as §1
as §2, with “counter. […]” for “counter.”

[2] = target: T4, human D2S dopamine (hD2S-DA) receptors (Homo sapiens, UniProt P14416); assay: Competition radioligand binding, hD2S dopamine; settings: [3H]Spiperone; membranes of A9 L cells; read-out: Ki D2
T4 construct: purchased Receptor Biology, Inc. (Beltsville, Md.); host or cells: A9 L cells
T4 sequence (P14416 1-414 isoform P14416-2): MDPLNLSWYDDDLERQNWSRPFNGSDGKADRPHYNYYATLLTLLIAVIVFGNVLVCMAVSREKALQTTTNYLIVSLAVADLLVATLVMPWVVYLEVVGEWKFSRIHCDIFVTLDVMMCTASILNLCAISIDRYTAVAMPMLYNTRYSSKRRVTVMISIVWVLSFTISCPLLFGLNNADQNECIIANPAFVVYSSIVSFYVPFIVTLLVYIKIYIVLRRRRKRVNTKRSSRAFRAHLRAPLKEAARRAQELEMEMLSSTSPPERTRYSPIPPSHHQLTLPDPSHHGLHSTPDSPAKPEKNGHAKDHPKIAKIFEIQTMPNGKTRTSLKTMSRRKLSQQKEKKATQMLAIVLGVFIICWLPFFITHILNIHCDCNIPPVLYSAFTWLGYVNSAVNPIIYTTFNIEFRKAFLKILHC

[3] = target: T5, human 5-HT6 (h5-HT6) receptors (Homo sapiens, UniProt P50406); assay: Competition radioligand binding, h5-HT6; settings: [3H]LSD; membranes of HEK-293 cells; read-out: Ki 5-HT6
T5 construct: purchased Receptor Biology, Inc. (Beltsville, Md.); host or cells: HEK-293 cells
T5 sequence (P50406 whole entry): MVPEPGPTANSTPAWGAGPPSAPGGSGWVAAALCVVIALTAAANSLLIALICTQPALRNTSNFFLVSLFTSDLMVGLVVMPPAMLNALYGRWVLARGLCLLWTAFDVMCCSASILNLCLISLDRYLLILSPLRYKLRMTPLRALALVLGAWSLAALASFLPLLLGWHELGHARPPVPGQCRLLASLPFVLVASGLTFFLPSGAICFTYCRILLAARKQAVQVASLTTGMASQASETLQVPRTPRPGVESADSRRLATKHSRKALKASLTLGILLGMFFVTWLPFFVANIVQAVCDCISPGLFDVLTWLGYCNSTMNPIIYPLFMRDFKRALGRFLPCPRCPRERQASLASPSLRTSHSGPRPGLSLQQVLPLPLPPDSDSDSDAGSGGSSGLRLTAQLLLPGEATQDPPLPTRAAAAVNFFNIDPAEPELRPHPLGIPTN

T1 sequence (P28223 whole entry): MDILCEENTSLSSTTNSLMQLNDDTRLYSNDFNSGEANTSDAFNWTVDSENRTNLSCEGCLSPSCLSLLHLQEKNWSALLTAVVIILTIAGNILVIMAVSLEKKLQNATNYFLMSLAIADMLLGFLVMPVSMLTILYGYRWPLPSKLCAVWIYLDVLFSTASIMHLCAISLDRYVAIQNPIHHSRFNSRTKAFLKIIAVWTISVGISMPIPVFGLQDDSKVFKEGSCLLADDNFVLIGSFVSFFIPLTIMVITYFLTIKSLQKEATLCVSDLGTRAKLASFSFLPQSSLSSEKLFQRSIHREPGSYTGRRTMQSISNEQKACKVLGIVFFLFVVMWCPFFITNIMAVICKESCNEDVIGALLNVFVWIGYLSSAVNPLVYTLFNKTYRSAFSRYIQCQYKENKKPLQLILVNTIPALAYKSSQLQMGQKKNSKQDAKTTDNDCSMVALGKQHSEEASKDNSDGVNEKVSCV

SMILES | pKi (human 5HT2a receptors) | pKi (human 5-HT1a receptors) | pKi [1] | pKi [2] | pKi [3]
CC(=O)Nc1ccc(NC(=O)NC(=N)NCc2cccc3ccccc23)cc1 [Example 1, N-(4-{[({Imino[(1-naphthylmethyl)amino]methyl}amino)carbonyl]amino}phenyl)acetamide] | 9.00 | 6.66 | 7.89 | 5.75 | 5.60
CC(=O)NC(=N)NCc1cccc2ccccc12 [Example 3, N-Acetyl-N′-(1-naphthylmethyl)guanidine] | 8.10 | 5.82 | 7.00 | < 5.60 | 5.57
N=C(NCc1cccc2ccccc12)NC(=O)N[C@H](CO)c1ccccc1 [Example 15, 1-({[[({[(1S)-2-Hydroxy-1-phenylethyl]amino}carbonyl)amino](imino)methyl]amino}methyl)naphthalene] | 9.40 |  | 8.59 | 6.54 | 6.77
N=C(NCc1cccc2ccccc12)NC(=O)NCc1cccnc1 [Example 18, 3-({[({Imino[(1-naphthylmethyl)amino]methyl}amino)carbonyl]amino}methyl)pyridine] | 9.37 |  | 7.77 | 5.99 | 6.46
N=C(NCc1cccc2ccccc12)NC(=O)N[C@H]1c2ccccc2C[C@H]1O [Example 42, 1-({[[({[(1S,2R)-2-Hydroxy-2,3-dihydro-1H-inden-1-yl]amino}carbonyl)amino](imino)methyl]amino}methyl)naphthalene] |  |  | 7.66 | 5.90 | 5.76
N=C(NCc1cccc2ccccc12)NC(=O)NCc1c(N)cccc1F [Example 44, 1-({[({[(2-Amino-6-fluorobenzyl)amino]carbonyl}amino)(imino)methyl]amino}methyl)naphthalene] |  |  | 7.48 | 6.05 | 6.30
N=C(NCc1cccc2ccccc12)NC(=O)NCCSCc1c(F)cccc1Cl [Example 47, 1-[10-(2-Chloro-6-fluorophenyl)-3-imino-5-oxo-9-thia-2,4,6-triazadec-1-yl]naphthalene] |  |  | 6.92 | 6.07 | 6.28
CC(C)(CO)CNC(=O)NC(=N)NCc1cccc2ccccc12 [Example 48, 1-({[({[(3-Hydroxy-2,2-dimethylpropyl)amino]carbonyl}amino)(imino)methyl]amino}methyl)naphthalene] |  |  | 8.01 | 5.77 | 5.58
COc1cc(CNC(=O)NC(=N)NCc2cccc3ccccc23)cc(OC)c1OC [Example 49, 1-({[Imino({[(3,4,5-trimethoxybenzyl)amino]carbonyl}amino)methyl]amino}methyl)naphthalene] |  |  | 7.52 | 6.08 | 5.95
N=C(NCc1cccc2ccccc12)NC(=O)NCC1CCN(Cc2cccc(C(F)(F)F)c2)CC1 [Example 57, 4-({[({Imino[(1-naphthylmethyl)amino]methyl}amino)carbonyl]amino}methyl)-1-[3-(trifluoromethyl)benzyl]piperidine] | 6.89 |  | 7.23 | 5.80 | 
N#Cc1ccc(CN2CCC(CNC(=O)NC(=N)NCc3cccc4ccccc34)CC2)cc1 [Example 59, 1-(4-Cyanobenzyl)-4-({[({imino[(1-naphthylmethyl)amino]methyl}amino)carbonyl]amino}methyl)piperidine] | 8.59 |  | 7.07 | < 5.60 | 
N=C(NCCc1ccccc1)NC(=O)N1CCN(Cc2ccccc2)CC1 [Example 61, N-[(4-Benzyl-1-piperazinyl)carbonyl]-N′-phenethylguanidine] | 5.74 | 6.03 | 6.31 | < 5.60 | 
Cc1cc(C)cc(CN2CCC(CNC(=O)NC(=N)NCc3cccc4ccccc34)CC2)c1 [Example 62, 1-(3,5-Dimethylbenzyl)4-({[({imino[(1-naphthylmethyl)amino]methyl}amino)carbonyl]amino}methyl)piperidine] | 8.01 |  | 7.66 | 6.31 | 
N=C(NCc1cccc2ccccc12)NC(=O)NCC1CCN(Cc2noc(-c3ccccc3)n2)CC1 [Example 64, 4-({[({Imino[(1-naphthylmethyl)amino]methyl}amino)carbonyl]amino}methyl)-1-[(5-phenyl-1,2,4-oxadiazol-3-yl)methyl]piperidine] | 8.38 |  | 7.04 | < 5.60 | 
N=C(NCc1cccc2ccccc12)NC(=O)NCC1CCN(Cc2cccc3ccccc23)CC1 [Example 69, 4-({[({Imino[(1-naphthylmethyl)amino]methyl}amino)carbonyl]amino}methyl)-1-(1-naphthylmethyl)piperidine] | 7.96 |  | 7.57 | 6.14 | 
CCOc1ccccc1CNC(=N)NC(=O)NC [Example 84, 1-Ethoxy-2-{[(imino{[(methylamino)carbonyl]amino}methyl)amino]methyl}benzene] | 6.40 | < 5.40 |  | < 5.60 | 5.06

From patent publication US20040044037A1, “Amidino-urea serotonin receptor ligands and compositions, their pharmaceutical uses, and methods for their snythesis” (priority 2003, published 2004)
